From patent US20210260022A1, “SYNERGY FOR INCREASING ENERGY EXPENDITURE AND INSULIN SENSITIVITY” (The Board of Supervisors of Louisiana State University and …, priority 2018, published 2021)

Assays:
[1] = cell culture and animal studies; cited from earlier work
human adipocytes [2] = experiment: Oxygen consumption rate in human adipocytes, Seahorse XF24; type: cell-based; details: treated for 7d
Experimental: Referring to FIG. 3, oxygen consumption rate in human adipocytes after Naringenin treatment. Cells were treated for 7d and OCR was measured using a Seahorse XF24. Rosiglitizone and GW7647 (activators of PPARγ and PPARα) were included as positive controls.

human adipocytes [3] = experiment: mRNA expression (Taqman RT-PCR) in differentiated human adipocytes after 7 day treatment; type: cell-based
Experimental: Carotenoids tested were β-carotene (βCar), Lycopene (lyco) and lutein. […] In our preclinical lab at PBRC, human subcutaneous adipocyte cell cultures were treated with naringenin at a concentration of 10 μM for seven days. […] Differentiated human adipocytes were treated with 10 μM naringenin for 7 days. Gene expression was analyzed using Taqman RT-PCR and values are expressed as fold increase over untreated controls (n=5). […] Activated AMPK induces glucose consumption and fat oxidation in adipose tissue. Carotenoids are vitamin A precursors found in foods and their consumption can cause reduction in adiposity and insulin resistance in pediatric clinical trials (Canas et al., 2012; Canas et al., 2017). After ingestion, they are metabolized into retinoid ligands for retinoic acid receptors (RAR) and retinoic X receptors (RXR) which are localized in the cell nucleus. RXRs form heterodimers with PPARs in transcriptional complexes known to target genes for energy expenditure and fat oxidation (Bonet et al., 2015).

PPARγ = target: T1, PPARγ (Homo sapiens, UniProt P37231); details: reporter gene assays; cited from earlier work
T1 sequence (P37231 1-505): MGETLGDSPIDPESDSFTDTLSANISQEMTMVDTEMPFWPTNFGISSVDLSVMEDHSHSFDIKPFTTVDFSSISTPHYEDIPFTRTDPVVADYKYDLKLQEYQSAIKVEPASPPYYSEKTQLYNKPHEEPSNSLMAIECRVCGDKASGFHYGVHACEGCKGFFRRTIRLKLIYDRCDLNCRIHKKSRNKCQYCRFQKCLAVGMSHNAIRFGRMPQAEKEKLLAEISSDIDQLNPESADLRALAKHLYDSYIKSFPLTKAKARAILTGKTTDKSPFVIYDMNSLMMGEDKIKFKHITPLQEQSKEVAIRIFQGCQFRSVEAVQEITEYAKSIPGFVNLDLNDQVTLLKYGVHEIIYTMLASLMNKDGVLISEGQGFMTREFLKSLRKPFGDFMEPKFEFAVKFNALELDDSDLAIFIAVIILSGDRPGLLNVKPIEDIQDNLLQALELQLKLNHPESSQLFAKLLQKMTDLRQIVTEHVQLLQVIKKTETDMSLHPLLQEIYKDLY

[4] = 150 mg three times a day for eight weeks (Murugesan et al., 2020); cited from earlier work
human adipocytes [5] = experiment: qRT-PCR in human adipocytes (hADSC) treated two days with naringenin and inhibitors; type: cell-based; details: for CPT1β mRNA expression compared to control / UCP1 mRNA expression compared to control: naringenin 30 μM (whole orange extract), two days
Experimental: Human white adipocytes were treated for 2d with naringenin in the presence of inhibitors of metabolic pathways to determine the mechanism of action for stimulating fat oxidation and thermogenic energy expenditure.
Naringenin increased UCP1 and CPT1β mRNA induction compared to control (p<0.001). PPARα and PPARγ inhibition reduced UCP1 and CPT1β mRNA expression (p<0.001). Each experiment was conducted with three biological replicates and four technical replicates.
The whole orange extract was dissolved in DMSO at 15 mM (based on 28% naringenin content) and added to cells at a dilution of 1:500 to achieve a final concentration of 30 μM. The inhibitors added to the naringenin-treated cells included: peroxisome proliferator-activated receptor alpha (PPARα) antagonist GW6471 and peroxisome proliferator-activated receptor gamma (PPARγ) antagonist GW9662 (Cayman Chemical, Ann Arbor, Mich.) at 10 μM concentration, protein kinase A (PKA) inhibitor H89 (Millipore Sigma, Burlington, Mass.) at 20 μM concentration, and protein kinase G (PKG) inhibitor […] (Biolog Life Science Institute, AXXORA, LLC, Farmingdale, N.Y.) at 50 μM concentration. GW6471 and GW9662 were dissolved in DMSO at 1000×, H89 was dissolved in PBS at 500×, and Rp-8-pCPT-cGMPS was dissolved in PBS at 100× prior to dilution in cell culture medium. Following a two-day treatment, the cells were harvested with Trizol reagent. RNeasy Mini Kit (Qiagen, Germantown, Md.) was used to isolate total RNA following manufacturer's protocol. The expression of UCP1, CPT1β, and GLUT4 was quantified with one-step reverse transcriptase PCR using the reverse PCR primer to prime cDNA synthesis as previously described.^6

PPARα = target: T2, PPARα (Homo sapiens, UniProt Q07869); details: reporter gene assays; cited from earlier work
T2 sequence (Q07869 1-468): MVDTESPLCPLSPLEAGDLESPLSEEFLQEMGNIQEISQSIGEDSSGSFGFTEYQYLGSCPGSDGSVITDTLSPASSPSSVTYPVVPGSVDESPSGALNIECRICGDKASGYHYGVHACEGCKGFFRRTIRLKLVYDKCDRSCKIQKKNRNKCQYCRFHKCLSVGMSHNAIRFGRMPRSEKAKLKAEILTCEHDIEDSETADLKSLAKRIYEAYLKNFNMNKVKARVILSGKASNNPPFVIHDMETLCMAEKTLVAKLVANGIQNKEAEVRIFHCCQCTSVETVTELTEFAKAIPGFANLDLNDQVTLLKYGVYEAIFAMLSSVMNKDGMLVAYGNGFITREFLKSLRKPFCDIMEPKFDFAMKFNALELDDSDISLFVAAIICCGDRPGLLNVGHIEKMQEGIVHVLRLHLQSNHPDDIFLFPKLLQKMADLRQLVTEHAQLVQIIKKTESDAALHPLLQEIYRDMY

ovariectomized mice = details: cited from earlier work

SMILES: O=C1C[C@@H](c2ccc(O)cc2)Oc2cc(O)cc(O)c21 [naringenin]
- concentration needed to elicit a physiologic response [1]: 1-200 μm
- oxygen consumption rate: basal and maximal energy expenditure (human adipocytes [2]): significantly increases basal and maximal energy expenditure
- oxygen consumption rate: basal and maximal energy expenditure (human adipocytes [2]; listed as Naringenin): increase in oxygen consumption
- expression of UCP1, GLUT4 and CPT-1 genes (human adipocytes [3]; 10 μM for seven days, human subcutaneous adipocytes): Significant increases
- Adiponectin RNA expression and adiponectin protein levels (human adipocytes [3]; naringenin at 10 micromolar): went up
- RNA and protein expression of uncoupling protein-1, adipose tissue glyceride lipase, carnitine palmitoyl transferase-1, glucose transporter-4, ChREBP alpha and beta (human adipocytes [3]; naringenin at 10 micromolar): increasing RNA and protein expression
- activation of PPARγ (PPARγ): Direct activation
- body weight reduction [4]: 2.5%
- CPT1β mRNA expression compared to control (human adipocytes [5]): more than three-fold
- UCP1 mRNA expression compared to control (human adipocytes [5]): more than three-fold
- CPT1β mRNA expression compared to control (human adipocytes [5]; listed as Naringenin): increased
- UCP1 mRNA expression compared to control (human adipocytes [5]; listed as Naringenin): increased
- GLUT4 mRNA expression (human adipocytes [5]; naringenin, two-day period): no increase
- activation of PPARα (PPARα): Direct activation
- weight gain, glucose metabolism and muscle function (ovariectomized mice; ovariectomized mice fed a high fat diet): reversed the weight gain and improved glucose metabolism and muscle function
- fasting glucose, insulin (and cholesterol) levels (ovariectomized mice; ovariectomized mice): improved fasting glucose, insulin and cholesterol levels
- weight gain caused by ovariectomy (ovariectomized mice; ovariectomized mice): prevented the weight gain
